Results on one compound are retold here after PMC11073449 (Science (New York, N.Y.), 2023).

The structures appear in SMILES notation. Changes are numbered by the printed parent chain.

For assay [1], the target named is T1, Aster-A (Mus musculus, UniProt Q8VEF1, L400A/F405I).
T1 sequence (Q8VEF1 334-562 L400A/F405I): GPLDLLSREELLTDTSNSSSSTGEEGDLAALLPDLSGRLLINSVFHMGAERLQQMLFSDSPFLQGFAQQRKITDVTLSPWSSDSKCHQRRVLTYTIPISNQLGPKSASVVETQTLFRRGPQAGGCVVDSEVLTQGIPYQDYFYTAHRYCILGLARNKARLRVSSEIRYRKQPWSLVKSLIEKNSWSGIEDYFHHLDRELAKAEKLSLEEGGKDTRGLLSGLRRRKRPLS
As to the kind of experiment: CD thermal stabilization. It counts as binding.

Assay [2] concerns the target T2, Aster-A (Mus musculus, UniProt Q8VEF1, L400A).
T2 sequence (Q8VEF1 334-562 L400A): T1 sequence (Q8VEF1 334-562 L400A/F405I) with I72F
As to the kind of experiment: CD thermal stabilization. It counts as binding.

`O=C1[C@H](CC[C@H](O)c2ccc(F)cc2)[C@@H](c2ccc(O)cc2)N1c1ccc(F)cc1` [EZ, ezetimibe]: the CD thermal stabilization result is reported as “The Aster-A mutant L400A_F405I, as well as the single mutant L400A, reduced Aster-A thermal stability” on Aster-A [1] and “but the stability was increased by EZ” on Aster-A [2].
